Source: patent publication US20050112706A1, “Diagnostic and prognostic methods for prostate cancers” (priority 2002, published 2005)

Columns and labels:
[1] = tested on: HPE cells; assay: 2D difference gel electrophoresis (DIGE) of hormone-treated HPE cells; type: cell-based, human; conditions: 10^−8 M DHT or 10^−5 M flutamide vs (−) hormone
Description: FIGS. 9A-B. Identification of androgen- and flutamide-regulated proteins by 2D difference gel electrophoresis. […] Whole cell proteins were extracted, labeled with the dyes Cy2 (ex 480, em 530), Cy3 (ex 540, em 590), and Cy5 (ex 620, em 680) respectively. The labeled proteins were mixed together and subjected to a pH gradient of pH 4 to pH 7 in the first dimension and separated by PAGE in the second dimension. […] The proteins were excised, subjected to in-gel tryptic digestion and analyzed by MS. The tryptic peptides were identified by searching the protein data bases such as the NCBInr and SWISS- PROT databases. EST databases were also searched with fragmentation data from tandem mass spectrometry when necessary.
Identification of antiandrogen-regulated genes. […] In this study, 8 proteins were identified by tryptic mapping and the sequences verified by partial amino acid sequencing of individual tryptic peptides (FIG. 9B). […] Of particular interest were calreticulin, DJ-1 and non-selenium glutathione peroxidase. Calreticulin binds to the AR DNA binding domain to block AR-activated transcription. Therefore, down-regulation of calreticulin expression would typically facilitate AR binding to the AR binding site to transactivate gene expression (Dedhar et al., 1994). Calreticulin also interacts with integrins during cell attachment and spreading (Coppolino and Dedhar, 1999) and a loss or decrease in calreticulin could potentially increase cell motility and increase HPE cell metastatic potential. The RNA binding protein regulatory subunit DJ-1 has oncogenic potential, transforming NIH3T3 cells in cooperation with ras (Nagakubo et al., 1997). DJ-1 also positively regulates AR-activated transcription by binding PIASx alpha and making it unavailable for the AR:PIASx alpha complex which functions to inhibit AR activation (Takahasi et al., 2001). Non-selenium glutathione peroxidase gene was initially identified as a KGF-regulated gene (Munz et al., 1997) and it is highly expressed in the hyperproliferative epithelium at the wound edge.

[2] = biological target: mutant LNCaP AR (Homo sapiens, UniProt P10275, T878A); conditions: LNCaP cells, increasing concentrations of R1881 (10^−12 to 10^−6 M)
[3] = biological target: endogenous AR (Homo sapiens, UniProt P10275)
Chain of endogenous AR (P10275 whole entry): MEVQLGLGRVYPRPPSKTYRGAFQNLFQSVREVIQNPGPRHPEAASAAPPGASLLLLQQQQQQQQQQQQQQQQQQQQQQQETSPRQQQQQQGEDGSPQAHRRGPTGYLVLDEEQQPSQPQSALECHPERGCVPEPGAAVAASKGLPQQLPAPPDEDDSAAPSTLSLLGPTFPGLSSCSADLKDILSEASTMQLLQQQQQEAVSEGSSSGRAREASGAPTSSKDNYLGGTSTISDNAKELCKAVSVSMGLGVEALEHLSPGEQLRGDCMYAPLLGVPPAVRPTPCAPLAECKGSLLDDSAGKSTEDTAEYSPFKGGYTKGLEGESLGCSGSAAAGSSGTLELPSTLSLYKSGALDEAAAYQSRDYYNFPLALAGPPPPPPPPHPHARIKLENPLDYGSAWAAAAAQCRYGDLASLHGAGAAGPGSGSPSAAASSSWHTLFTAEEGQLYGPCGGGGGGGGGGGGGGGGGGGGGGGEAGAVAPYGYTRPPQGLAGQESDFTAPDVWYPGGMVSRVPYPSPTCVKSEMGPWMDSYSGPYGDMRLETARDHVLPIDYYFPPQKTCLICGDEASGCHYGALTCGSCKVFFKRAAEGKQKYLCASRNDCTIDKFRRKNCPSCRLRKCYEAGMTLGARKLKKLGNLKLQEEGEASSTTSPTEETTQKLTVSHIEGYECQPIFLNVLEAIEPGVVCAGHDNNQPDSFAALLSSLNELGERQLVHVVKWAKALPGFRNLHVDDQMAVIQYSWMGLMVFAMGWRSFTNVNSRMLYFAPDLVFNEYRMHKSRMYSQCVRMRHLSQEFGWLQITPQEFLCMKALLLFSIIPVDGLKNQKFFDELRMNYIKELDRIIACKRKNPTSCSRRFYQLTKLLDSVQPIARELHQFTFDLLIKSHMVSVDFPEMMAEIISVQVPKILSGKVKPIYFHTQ

Chain of mutant LNCaP AR (P10275 whole entry T878A): as the sequence (P10275 whole entry) above, with T878A counted along it

Compound	Calreticulin expression [1]	expression of actin [1]	expression of annexin V [1]	expression of glutathione S-transferase [1]	expression of vimentin [1]	concentration at which near maximal CAT activity was observed [2]	ARR2PB-activated CAT gene expression on addition of androgen [3]	CAT gene expression on addition of androgen [3]
C[C@]12CCC(=O)C[C@@H]1CC[C@@H]1[C@@H]2CC[C@]2(C)[C@@H](O)CC[C@@H]12 [DHT]	increased	down-regulated	down-regulated	down-regulated	down-regulated			
C[C@]1(O)CC[C@H]2[C@@H]3CCC4=CC(=O)CCC4=C3C=C[C@@]21C [R1881]						10^−8 M	did not increase these levels any further	did not increase CAT gene expression any further
